Source: article PMC12113356, “Novel Anti-MRSA Peptide from Mangrove-Derived Virgibacillus chiguensis FN33 Supported by Genomics and Molecular Dynamics” (Marine Drugs, 2025)
Values after ≈ are worked out from the molar mass of the structure shown. Peptide text beside a SMILES is read from it.

What was measured:
MRSA strain 2468 [1] = assay: Stability to pH variation (activity retention by agar well diffusion); assay type: physicochemical, Staphylococcus aureus; settings: 32 µg/mL, neutralized before test, agar well diffusion read-out, % of untreated sample, mean ± SD, n = 3
Protocol: The AMP solution was prepared in sterile purified water and adjusted to a final concentration of 32 µg/mL. To determine thermal stability, the AMP was exposed to temperatures of 30, 40, 60, 80, and 100 °C, as well as to autoclaving at 121 °C and 15 psi for 15 and 30 min. The susceptibility of the AMP to enzymatic degradation was examined by treating it with proteinase K, trypsin, and α-chymotrypsin (each at 1 mg/mL, Sigma-Aldrich, Warren, MI, USA), representing different proteolytic mechanisms. The AMP’s compatibility with surfactants was assessed by incubating it with 1% SDS, 1% CTAB, and 1% Triton X-100 (AppliChem GmbH, Darmstadt, Germany). Additionally, the effect of pH variations on AMP integrity was tested by adjusting the solution to pH 1, 4, 8, 10, and 14. The pH was neutralized to the original pH after incubation before conducting antibacterial activity tests. […] Stability data were expressed as residual activity percentages relative to the untreated sample (mean ± SD), and statistical significance was evaluated using two-way ANOVA and Tukey’s post hoc test, with a p-value < 0.05 considered significant.

egg albumin = assay: Albumin denaturation assay (in vitro anti-inflammatory); assay type: biochemical, hen; settings: PBS pH 7.2, 37 °C 15 min then 70 °C 5 min, OD 660 nm, mean ± SD, n = 3
Protocol: The reaction mixture consisted of 25 μL of egg albumin (derived from fresh hen eggs), 350 μL of PBS (pH 7.2, 0.1 M), and 250 μL of AMP or PBS (used as a reference). The mixtures were pre-incubated at 37 °C for 15 min, followed by denaturation at 70 °C for 5 min. After a 5 min cooling period on ice, the optical density (OD) at 660 nm was measured using a spectrophotometer. […] The percentage inhibition of albumin denaturation was calculated using the following equation:Inhibition of albumin denaturation (%) = [1 − (Absorbancesample/Absorbancecontrol)] × 100

[2] = DPPH radical-scavenging assay; settings: 0.1 mM DPPH, 25 °C, 30 min in darkness, absorbance 517 nm; mean ± SD, n = 3
Protocol: A 200 μL sample or ascorbic acid (Gammaco Ltd., Bangkok, Thailand) was added to 2 mL of 0.1 mM DPPH solution (Merck Ltd., Bangkok, Thailand) and incubated at 25 °C in darkness for 30 min. The DPPH color change from purple to pale yellow was observed, and the absorbance at 517 nm was measured using a UV–visible spectrophotometer.

S. aureus TISTR 517 [3] = assay: Broth microdilution MIC/MBC (CLSI); assay type: cell-based, Staphylococcus aureus; settings: broth microdilution, CAMHB, 37 °C 24 h, triplicate
Protocol: The broth microdilution method was performed following the guidelines of the Clinical and Laboratory Standards Institute (CLSI). Test strains including S. aureus TISTR 517 and MRSA strains 142, 1096, and 2468 were cultured on MH agar at 37 °C for 18 h. A single colony from each strain was suspended in 0.85% NaCl until it reached a turbidity of 0.1 OD at 625 nm (1 × 10^8 CFU/mL). The bacterial cells were then diluted to 5 × 10^6 CFU/mL using cation-adjusted Mueller–Hinton broth (CAMHB). Ten microliters of the cell suspension were added to each well of a 96-well plate to make the total volume in each well 100 µL. The AMP was added to achieve final concentrations ranging from 0.125 to 64 µg/mL. Vancomycin and cefoxitin were used as positive controls, while antibiotic-free samples were used as negative controls. The plate was incubated at 37 °C for 24 h. Each experiment was performed in triplicate. The MIC was determined as the lowest concentration that inhibited visible bacterial growth. For the MBC, 100 µL from each dilution was spread on MH agar and incubated at 37 °C for 24 h. The MBC was the lowest concentration at which no bacterial colonies appeared on the agar plates.

S. aureus TISTR 517 [4] = assay: Time-kill assay; assay type: cell-based, Staphylococcus aureus; settings: for bacterial reduction rate: triplicate
Protocol: (§1) The time–kill assay of FN33 AMP was conducted by measuring bacterial viability (log CFU/mL) at different time points. […] In the untreated group, bacterial growth increased over time, with a growth rate of 0.292 log CFU/h for S. aureus TISTR 517 and 0.2884 log CFU/h for MRSA strain 2468. […] However, complete eradication of S. aureus TISTR 517 was not achieved at either concentration, even after 24 h of treatment. […] The bactericidal effect was confirmed by complete eradication within 20 h of treatment. […] The killing rate against MRSA strain 2468 was faster than that observed for S. aureus TISTR 517 at all concentrations.
(§2) Error bars represent the standard deviation of triplicate experiments.

MRSA strain 2468 [5] = assay: Time-kill assay; assay type: cell-based, Staphylococcus aureus; settings: for bacterial reduction rate: triplicate
Protocol: as §1, §2

## CC(C)C[C@H](NC(=O)[C@H](CC(=O)O)NC(=O)[C@H](CS)NC(=O)[C@H](Cc1c[nH]cn1)NC(=O)[C@H](CS)NC(=O)[C@@H]1CCCN1C(=O)[C@@H](NC(=O)[C@H](CC(C)C)NC(=O)[C@H](CS)NC(=O)CNC(=O)[C@H](Cc1c[nH]c2ccccc12)NC(=O)[C@@H](NC(=O)[C@H](CC(=O)O)NC(=O)[C@@H](NC(=O)CNC(=O)[C@H](CS)NC(=O)CNC(=O)CNC(=O)[C@@H](N)CCC(=O)O)C(C)C)[C@@H](C)O)[C@@H](C)O)C(=O)N[C@@H](Cc1ccccc1)C(=O)N[C@@H](CS)C(=O)N[C@H](C(=O)N[C@H](C(=O)O)[C@@H](C)O)[C@@H](C)O [FN33 AMP] (H-EGGCGVDTWGCLTPCHCDLFCTT-OH)
MRSA strain 2468 [1]; pH 1, 1 h
  Antibacterial Activity Retention of FN33 AMP (%) Against MRSA Strain 2468: 74.56 ± 0.69 %
MRSA strain 2468 [1]; pH 1, 6 h
  Antibacterial Activity Retention of FN33 AMP (%) Against MRSA Strain 2468: 76.51 ± 0.39 %
MRSA strain 2468 [1]; pH 1, 12 h
  Antibacterial Activity Retention of FN33 AMP (%) Against MRSA Strain 2468: 72.85 ± 0.22 *^,† %
MRSA strain 2468 [1]; pH 4, 1 h
  Antibacterial Activity Retention of FN33 AMP (%) Against MRSA Strain 2468: 97.42 ± 0.65 %
MRSA strain 2468 [1]; pH 4, 6 h
  Antibacterial Activity Retention of FN33 AMP (%) Against MRSA Strain 2468: 96.19 ± 0.21 %
MRSA strain 2468 [1]; pH 4, 12 h
  Antibacterial Activity Retention of FN33 AMP (%) Against MRSA Strain 2468: 95.30 ± 0.69 *^,† %
MRSA strain 2468 [1]; pH 8, 1 h
  Antibacterial Activity Retention of FN33 AMP (%) Against MRSA Strain 2468: 99.53 ± 0.41%
MRSA strain 2468 [1]; pH 8, 6 h
  Antibacterial Activity Retention of FN33 AMP (%) Against MRSA Strain 2468: 98.03 ± 0.65%
MRSA strain 2468 [1]; pH 8, 12 h
  Antibacterial Activity Retention of FN33 AMP (%) Against MRSA Strain 2468: 98.76 ± 0.81%
MRSA strain 2468 [1]; pH 10, 1 h
  Antibacterial Activity Retention of FN33 AMP (%) Against MRSA Strain 2468: 74.63 ± 0.79 %
MRSA strain 2468 [1]; pH 10, 6 h
  Antibacterial Activity Retention of FN33 AMP (%) Against MRSA Strain 2468: 73.12 ± 1.04 *^,† %
MRSA strain 2468 [1]; pH 10, 12 h
  Antibacterial Activity Retention of FN33 AMP (%) Against MRSA Strain 2468: 69.46 ± 0.77 *^,† %
MRSA strain 2468 [1]; pH 14, 1 h
  Antibacterial Activity Retention of FN33 AMP (%) Against MRSA Strain 2468: 68.58 ± 0.45 %
MRSA strain 2468 [1]; pH 14, 6 h
  Antibacterial Activity Retention of FN33 AMP (%) Against MRSA Strain 2468: 66.80 ± 0.27 *^,† %
MRSA strain 2468 [1]; pH 14, 12 h
  Antibacterial Activity Retention of FN33 AMP (%) Against MRSA Strain 2468: 65.80 ± 0.84 *^,† %
Egg albumin; 50 µg/mL
  % Inhibition of Albumin Denaturation: 4.85 ± 0.93 *^,† %
Egg albumin; 100 µg/mL
  % Inhibition of Albumin Denaturation: 17.75 ± 0.97 *^,† %
Egg albumin; 250 µg/mL
  % Inhibition of Albumin Denaturation: 34.39 ± 1.82 %
Egg albumin; 500 µg/mL
  % Inhibition of Albumin Denaturation: 57.16 ± 1.06 %
[2]
  IC50 (DPPH radical scavenging): 11.66 ± 2.87 µg/mL (≈ 4.82 µM)
S. aureus TISTR 517 [3]
  MIC: 16 µg/mL (≈ 6.61 µM)
S. aureus TISTR 517 [4]; 1× MIC, up to 24 h
  bacterial reduction rate: 0.0496 log CFU/h
S. aureus TISTR 517 [4]; 2× MIC, up to 24 h
  bacterial reduction rate: 0.1322 log CFU/h
S. aureus TISTR 517 [4]; 4× MIC
  time to complete eradication: ≤ 20 h
  bacterial reduction rate: 0.2704 log CFU/h
MRSA strain 2468 [5]; 1× MIC
  bacterial reduction rate: 0.1519 log CFU/h
MRSA strain 2468 [5]; 2× MIC
  time to eradication (no detectable bacterial counts): ≤ 20 h
  bacterial reduction rate: 0.2498 log CFU/h
MRSA strain 2468 [5]; 4× MIC
  time to eradication (no detectable bacterial counts): ≤ 12 h
  bacterial reduction rate: 0.4508 log CFU/h
